In PubChem BioAssay AID328 (DTP/NCI, 2004):
Several values for one entry are separate records, joined by “and”; a condition that tells them apart may be missing. Equal values may be shown once. Toxic doses and inconclusive results are not listed. The calls were made as follows: active = survival T/C of 150% or more; inactive = T/C below 125% in these data.

Tested on: BDF1 mice, P388 leukemia ip, median survival T/C
Assay: NCI In Vivo Anticancer Drug Screen. Data for tumor model P388 Leukemia (intraperitoneal) in B6D2F1 (BDF1) mice
Conditions: endpoint: median survival time, higher = longer survival
How it was run: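 Transplantable tumour in mice; compound vs vehicle dosing; survival scored; ratio of treated to control reported.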

[1] = dose: 200.0 mg/kg/injection, schedule: Q04DX003 (ip), vehicle: saline
[2] = dose: 25.0 mg/kg/injection, schedule: Q01DX009 (ip), vehicle: saline with Tween-80
[3] = dose: 75.0 mg/kg/injection, schedule: Q01DX009 (ip), vehicle: saline with Tween-80
[4] = dose: 100.0 mg/kg/injection, schedule: Q01DX009 (ip), vehicle: saline with Tween-80
[5] = dose: 100.0 mg/kg/injection, schedule: Q04DX003 (ip), vehicle: saline with Tween-80
[6] = dose: 200.0 mg/kg/injection, schedule: Q01DX009 (ip), vehicle: saline with Tween-80
[7] = dose: 200.0 mg/kg/injection, schedule: Q04DX003 (ip), vehicle: saline with Tween-80
[8] = dose: 400.0 mg/kg/injection, schedule: Q01DX009 (ip), vehicle: saline with Tween-80
[9] = dose: 400.0 mg/kg/injection, schedule: Q04DX003 (ip), vehicle: saline with Tween-80
[10] = dose: 50.0 mg/kg/injection, schedule: Q01DX009 (ip), vehicle: saline with Tween-80
[11] = dose: 6.25 mg/kg/injection, schedule: Q01DX009 (ip), vehicle: water
[12] = dose: 100.0 mg/kg/injection, schedule: Q01DX009 (ip), vehicle: saline
[13] = dose: 100.0 mg/kg/injection, schedule: Q04DX003 (ip), vehicle: saline

Measured: T/C

CC12C3C(=O)NC45CCCC41C5(c1ccccc1)C32c1ccccc1 (stereo not drawn)
inactive: dose: 100.0 mg/kg/injection, schedule: Q01DX001 (ip), vehicle: saline sonified 95 % of control | dose: 200.0 mg/kg/injection, schedule: Q01DX001 (ip), vehicle: saline sonified 95 % of control | dose: 400.0 mg/kg/injection, schedule: Q01DX001 (ip), vehicle: saline sonified 86 % of control

Cc1ccc(N2CC(=O)N3CCCC(c4ccccc4)N3C(=O)C2)cc1 (stereo not drawn)
inactive: dose: 50.0 mg/kg/injection, schedule: Q01DX005 (ip), vehicle: saline with Tween-80 97 % of control | dose: 100.0 mg/kg/injection, schedule: Q01DX005 (ip), vehicle: saline with Tween-80 94 % of control | dose: 200.0 mg/kg/injection, schedule: Q01DX005 (ip), vehicle: saline with Tween-80 94 % of control

CCN(CC)C(=S)S
inactive: dose: 100.0 mg/kg/injection, schedule: Q01DX009 (ip), vehicle: saline sonified 104 % of control | dose: 200.0 mg/kg/injection, schedule: Q01DX009 (ip), vehicle: saline sonified 100 % of control | dose: 400.0 mg/kg/injection, schedule: Q01DX009 (ip), vehicle: saline sonified 118 % of control | dose: 400.0 mg/kg/injection, schedule: Q01DX010 (ip), vehicle: water 100 % of control

CC(=N\O)/C(C)=N/O.CC(=N\O)/C(C)=N/O.[Pd]
inactive: dose: 1.57 mg/kg/injection, schedule: Q01DX009 (ip), vehicle: Klucel (hydroxypropylcellulose) (HPC) 100 % of control | dose: 3.13 mg/kg/injection, schedule: Q01DX009 (ip), vehicle: Klucel (hydroxypropylcellulose) (HPC) 100 % of control | dose: 6.25 mg/kg/injection, schedule: Q01DX009 (ip), vehicle: Klucel (hydroxypropylcellulose) (HPC) 100 % of control

COc1c2c(cc3oc4ccccc4c(=O)c13)CCCC2=O
inactive: dose: 50.0 mg/kg/injection, schedule: Q01DX005 (ip), vehicle: Klucel (hydroxypropylcellulose) (HPC) 90 % of control | dose: 200.0 mg/kg/injection, schedule: Q01DX005 (ip), vehicle: Klucel (hydroxypropylcellulose) (HPC) 88 % of control

C=C(CC(N)=O)C(=O)O (tested in a mixture with another compound)
inactive: dose: 88.0 mg/kg/injection, schedule: Q01DX003 (ip), vehicle: saline 109 % of control and 113 % of control | dose: 177.0 mg/kg/injection, schedule: Q01DX003 (ip), vehicle: saline 109 % of control and 122 % of control | dose: 266.0 mg/kg/injection, schedule: Q01DX003 (ip), vehicle: saline 109 % of control and 122 % of control | dose: 400.0 mg/kg/injection, schedule: Q01DX003 (ip), vehicle: saline 118 % of control and 122 % of control | dose: 600.0 mg/kg/injection, schedule: Q01DX003 (ip), vehicle: saline 118 % of control

CCCCCCCCCCCCn1c(C)nc2ccccc21
inactive: dose: 10.0 mg/kg/injection, schedule: Q04DX003 (ip), vehicle: saline 105 % of control | dose: 20.0 mg/kg/injection, schedule: Q04DX003 (ip), vehicle: saline 120 % of control | dose: 40.0 mg/kg/injection, schedule: Q04DX003 (ip), vehicle: saline 115 % of control | dose: 60.0 mg/kg/injection, schedule: Q04DX003 (ip), vehicle: saline 109 % of control | dose: 90.0 mg/kg/injection, schedule: Q04DX003 (ip), vehicle: saline 104 % of control | dose: 135.0 mg/kg/injection, schedule: Q04DX003 (ip), vehicle: saline 86 % of control | [1] 105 % of control | dose: 305.0 mg/kg/injection, schedule: Q04DX003 (ip), vehicle: saline 110 % of control

COc1cc(-c2ccc(Nc3ccccc3C(=O)O)c(OC)c2)ccc1N
active: [3] 163 % of control
inactive: [2] 110 % of control | dose: 33.0 mg/kg/injection, schedule: Q01DX009 (ip), vehicle: saline with Tween-80 109 % of control

COc1cc(/C=N/NC(N)=S)cc(OC)c1OC
inactive: [4] 104 % of control | [5] 90 % of control | [6] 104 % of control | [7] 109 % of control | [8] 100 % of control | [9] 104 % of control

CSCCC1NC(=O)C(/C(C)=N\NC(N)=O)=C1O (stereo not drawn)
inactive: [10] 108 % of control | [4] 115 % of control | [6] 92 % of control

CC(=O)CC(C)=O.CC(=O)CC(C)=O.Cc1nccn1C.O=N[O-].[Co]
inactive: dose: 100.0 mg/kg/injection, schedule: Q04DX002 (ip), vehicle: saline with Tween-80 105 % of control

CNNCc1ccc(/C=N/NC(N)=S)cc1
inactive: [11] 106 % of control | dose: 12.5 mg/kg/injection, schedule: Q01DX009 (ip), vehicle: water 114 % of control | dose: 25.0 mg/kg/injection, schedule: Q01DX009 (ip), vehicle: water 92 % of control | dose: 50.0 mg/kg/injection, schedule: Q01DX009 (ip), vehicle: water 92 % of control

O=N[O-].O=N[O-].[NH-]CC[NH-].[Pt+2]
inactive: dose: 25.0 mg/kg/injection, schedule: Q04DX003 (ip), vehicle: saline 95 % of control | dose: 50.0 mg/kg/injection, schedule: Q04DX003 (ip), vehicle: saline 108 % of control | [12] 90 % of control | [13] 95 % of control

O=C1c2ccccc2C(=O)N1N1C(=O)c2ccccc2C1=O
inactive: [4] 100 % of control | [6] 90 % of control | [8] 100 % of control

CNC(=O)N/N=C/c1ccccc1
inactive: [3] 101 % of control | dose: 150.0 mg/kg/injection, schedule: Q01DX009 (ip), vehicle: saline with Tween-80 97 % of control | dose: 300.0 mg/kg/injection, schedule: Q01DX009 (ip), vehicle: saline with Tween-80 92 % of control

Nc1ccc2c(-c3ccccc3)cc(NCCCN3CCOCC3)nc2n1
inactive: [13] 104 % of control | [1] 100 % of control

Cc1ccc(C)c(CN(C)C)c1O
inactive: dose: 25.0 mg/kg/injection, schedule: Q04DX003 (ip), vehicle: Klucel (hydroxypropylcellulose) (HPC) 118 % of control | dose: 50.0 mg/kg/injection, schedule: Q04DX003 (ip), vehicle: Klucel (hydroxypropylcellulose) (HPC) 100 % of control | dose: 100.0 mg/kg/injection, schedule: Q04DX003 (ip), vehicle: Klucel (hydroxypropylcellulose) (HPC) 100 % of control

COc1cc(/C=C/c2ccc3ccccc3n2)cc(OC)c1OC
inactive: [5] 100 % of control

COc1cc(C2NC(=O)C(C#N)=C(Nc3cccc(C)c3)S2)ccc1O (stereo not drawn)
inactive: [10] 101 % of control | [4] 114 % of control | [6] 119 % of control

COC(=O)CCCCCC(O)C1CCC2OC(=O)CC21C (stereo not drawn)
inactive: [5] 100 % of control | [7] 100 % of control | [9] 100 % of control

Clc1ncnc2c1ncn2C1CCCCO1 (stereo not drawn)
inactive: dose: 25.0 mg/kg/injection, schedule: Q01DX009 (ip), vehicle: saline 90 % of control | dose: 50.0 mg/kg/injection, schedule: Q01DX009 (ip), vehicle: saline 100 % of control | dose: 100.0 mg/kg/injection, schedule: Q01DX009 (ip), vehicle: other 92 % of control | [12] 95 % of control | dose: 100.0 mg/kg/injection, schedule: Q04DX003 (ip), vehicle: other 108 % of control | dose: 200.0 mg/kg/injection, schedule: Q04DX003 (ip), vehicle: other 108 % of control | dose: 400.0 mg/kg/injection, schedule: Q01DX009 (ip), vehicle: other 115 % of control | dose: 400.0 mg/kg/injection, schedule: Q04DX003 (ip), vehicle: other 108 % of control

C=C(C)[C@@H]1CC[C@]2(C)CC[C@]3(C)[C@H](CC[C@@H]4[C@@]5(C)CC[C@H](O)C(C)(C)[C@@H]5CC[C@]43C)[C@@H]12
inactive: dose: 50.0 mg/kg/injection, schedule: Q01DX009 (ip), vehicle: Klucel (hydroxypropylcellulose) (HPC) 93 % of control | dose: 100.0 mg/kg/injection, schedule: Q01DX009 (ip), vehicle: Klucel (hydroxypropylcellulose) (HPC) 101 % of control | dose: 200.0 mg/kg/injection, schedule: Q01DX009 (ip), vehicle: Klucel (hydroxypropylcellulose) (HPC) 105 % of control | dose: 400.0 mg/kg/injection, schedule: Q01DX009 (ip), vehicle: Klucel (hydroxypropylcellulose) (HPC) 97 % of control

COc1cccc2c1C(=O)c1c(O)c3c(c(O)c1C2=O)C[C@@](O)(C(C)=O)C[C@@H]3OC(=O)CCN
active: [11] 169 % of control
inactive: dose: 1.56 mg/kg/injection, schedule: Q01DX009 (ip), vehicle: water 100 % of control and 123 % of control | dose: 3.12 mg/kg/injection, schedule: Q01DX009 (ip), vehicle: water 93 % of control

Clc1cc(C(Cl)(Cl)Cl)c(Cl)cc1C(Cl)(Cl)Cl
inactive: [5] 100 % of control | [7] 105 % of control | [9] 110 % of control

CCN(CC)c1c(-c2ccccc2)nnc2c3ccccc3nn12
inactive: [2] 100 % of control | [10] 88 % of control | [4] 100 % of control
